According to US11059778B2, “Cannabinoid receptor CB2 ligand 4-(aminomethyl)-N, N-dialkylanilines” (UNIVERSITY OF PITTSBURGH—OF THE COMMONWEALTH SYSTEM OF …, priority 2015, dated 2021):

Experiments:
human CB2 receptors = molecular target: T1, human CB2 receptors (Homo sapiens, UniProt P34972); assay: [3H]CP-55,940 radioligand competition binding assay, CB2; conditions: for Ki: CHO cell membranes, [3H]CP-55,940 displacement
T1 construct: expressed in transfected cells
Procedure: (§1) Binding assay. The bioassay is carried out using the Perkin Elmer 96-well Top Counter. This bioassay is also known as a competition binding assay and the biological evaluation is to determine the CB receptor binding affinity (Ki) of the screened ligands by displacing [^3H]-CP-55940 (or other radioligands). The brief procedure is given below.
(§2) Perkin Elmer 96-well TopCounter is used at PMLSC and in our laboratory to determine the CB receptor binding affinity (Ki) of the in-silico screened ligands by displacing [^3H]-CP-55,940 (or other radioligands). In competition binding experiments, the tested compound dilutions are carried out in triplicate in TME buffer (25 mM Tris, 5 mM MgCl2, 1 mM EDTA) containing 0.1% (w/v) fatty acid free bovine serum albumin (BSA), pH 7.4. Various concentrations of the tested compound are added in the same volume to 0.5 nM [^3H]CP-55,940. TME buffer and cell membrane preparations expressing CB receptors (2.5 μg per well) are added to a final volume of 200 μL. For the saturation binding experiments, varying concentrations of [^3H]CP-55,940 (0.05-1.5 nM) with or without 2 μM of unlabeled ligands (CP-55,940 or WIN-55,212-2) are incubated with the receptor membrane preparations to determine Kd and nonspecific binding. After the binding suspensions are incubated at 30° C. for 1 hr, the reaction is terminated by rapid filtration through microfiltration plates coated with 0.5% polyethylenimine (Unifilter GF/B filterplate, PerkinElmer) followed by 5 washes with ice cold TME buffer containing 0.5% BSA on a Packard Filtermate Harvester (PerkinElmer). The plates are then dried overnight and 30 μl MicroScint 0 scintillation cocktail are added to each well of the dried filter plates. Then the bound radioactivity is counted using a Perkin Elmer 96-well TopCounter. The Ki is calculated by using nonlinear regression analysis (Prism 5; GraphPad Software Inc., San Diego, Calif.), with the Kd values for [^3H]CP-55,940 determined from saturation binding experiments. This assay is used for determining binding affinity parameters (Ki) of ligand-receptor interactions for the CB receptor.
(§3) The affinities of the synthesized ligands were determined in radioligand binding studies at human CB1 and CB2 receptors using [3H](—)-cis-3-[2-hydroxy-4-(1,1 dimethylheptyl)phenyl]-trans-4-(3-hydroxypropyl) cyclohexanol (CP55,940) as a CB receptor radioligand. As a source for human CB1 and CB2 receptors, membrane preparations of Chinese hamster ovary (CHO) cells stably expressing the respective receptor subtype were utilized (50 μg of protein/vial). CB2 selective ligand SR144528 (CB2 inverse agonist) and CB1 ligand SR141716 (CB1 inverse agonist) were used as positive controls, respectively, along with the tested compounds in bioassays experiments. Only compounds with high CB2 receptor binding potency was chosen to carry out the CB1 binding assay. CB ligand competition binding assay was carried out as described previously in Gertsch, J., et al., Beta-caryophyllene is a dietary cannabinoid. Proc Natl Acad Sci USA 2008, 105 (26), 9099-104. Briefly, non-radioactive (or cold) ligands (synthesized derivatives and reference ligands) were diluted in a binding buffer (50 mM Tris-HCl (pH 7.4), 5 mM MgC12, 2.5 mM EGTA, and 0.1% (w/v) fatty acid free BSA), supplemented with 10% dimethyl sulfoxide and 0.4% methyl cellulose. Each assay plate well contained a total of 200 μL of reaction mixture composed of 5 μg of CB1 (or 2.5 μg CB2) membrane protein, labeled [3H]-CP-55,940 ligand at a final concentration of 2.5 nM, and the unlabeled ligand at its varying dilutions as stated above. Plates were incubated at 30° C. for 1 hour with gentle shaking.
(§4) The reaction was terminated by rapid filtration through Unifilter GF/B filter plates using a Unifilter Cell Harvester (PerkinElmer). After the plate was allowed to dry overnight, 30 μL MicroScint-0 cocktail (PerkinElmer) was added to each well, and the radioactivity was counted using a PerkinElmer TopCounter. […]

human CB1 receptors = molecular target: T2, human CB1 receptors (Homo sapiens, UniProt P21554); assay: [3H]CP-55,940 radioligand competition binding assay, CB1; conditions: CHO cell membranes, [3H]CP-55,940 displacement
T2 construct: expressed in transfected cells
Procedure: as §1, §2, §3, §4

T1 sequence (P34972 whole entry): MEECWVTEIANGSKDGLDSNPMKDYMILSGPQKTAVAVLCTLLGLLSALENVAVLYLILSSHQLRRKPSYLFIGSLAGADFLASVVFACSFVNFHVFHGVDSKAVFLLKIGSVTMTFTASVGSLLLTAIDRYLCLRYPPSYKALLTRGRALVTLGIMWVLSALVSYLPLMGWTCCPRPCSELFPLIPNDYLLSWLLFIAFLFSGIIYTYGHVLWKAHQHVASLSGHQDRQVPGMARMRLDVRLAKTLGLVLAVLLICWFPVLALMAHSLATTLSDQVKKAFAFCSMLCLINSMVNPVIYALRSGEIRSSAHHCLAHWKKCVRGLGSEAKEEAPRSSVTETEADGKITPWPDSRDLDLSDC
T2 sequence (P21554 whole entry): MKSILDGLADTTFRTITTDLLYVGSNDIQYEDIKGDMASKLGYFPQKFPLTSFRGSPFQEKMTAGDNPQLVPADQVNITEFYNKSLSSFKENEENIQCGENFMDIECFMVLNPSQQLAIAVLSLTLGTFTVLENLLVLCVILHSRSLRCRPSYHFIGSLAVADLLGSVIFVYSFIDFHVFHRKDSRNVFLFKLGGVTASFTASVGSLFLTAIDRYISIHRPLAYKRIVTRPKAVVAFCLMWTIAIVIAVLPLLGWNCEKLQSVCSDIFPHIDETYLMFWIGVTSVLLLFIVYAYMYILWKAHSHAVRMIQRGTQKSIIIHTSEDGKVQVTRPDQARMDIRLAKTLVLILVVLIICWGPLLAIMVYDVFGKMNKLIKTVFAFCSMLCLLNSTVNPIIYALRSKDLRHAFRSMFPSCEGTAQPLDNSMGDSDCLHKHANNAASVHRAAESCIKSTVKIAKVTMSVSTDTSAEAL

Row | Compound | SI: selectivity index for CB2, calculated as Ki(CB1)/Ki(CB2) ratio (human CB2 receptors) | Ki (human CB2 receptors) [nM] | Ki (human CB1 receptors) [nM] | Ki (CB1) (human CB1 receptors)
1 | 4-(((benzo[d][1,3]dioxol-5-ylmethyl)(quinoxalin-2-ylmethyl)amino)methyl)-N,N-diethylaniline [Compound 31] | 2 | 775 | 1270 | 
2 | CCN(CC)c1ccc(CN(Cc2cc(OC)c(OC)c(OC)c2)S(=O)(=O)c2ccc(C)cc2)cc1 [Compound 6, N-(4-(diethylamino)benzyl)-4-methyl-N-(3,4,5-trimethoxybenzyl)benzenesulfonamide] | 2 | 387 | 774 | 
3 | CCN(CC)c1ccc(CN(Cc2cc(OC)c(OC)c(OC)c2)S(=O)(=O)c2ccc(C(C)C)cc2)cc1 [Compound 8, N-(4-(diethylamino)benzyl)-4-isopropyl-N-(3,4,5-trimethoxybenzyl)benzenesulfonamide] |  | 230 | 122 | 
4 | CCN(CC)c1ccc(CN(Cc2cc(OC)c(OC)c(OC)c2)S(=O)(=O)c2ccc(-c3ccccc3)cc2)cc1 [Compound 10, N-(4-(diethylamino)benzyl)-N-(3,4,5-trimethoxybenzyl)-[1,1′-biphenyl]-4-sulfonamide] | 62 | 322 | > 20000 | 
5 | CCN(CC)c1ccc(CN(Cc2cc(OC)c(OC)c(OC)c2)C(=O)c2cnc3ccccc3n2)cc1 [Compound 12, N-(4-(diethylamino)benzyl)-N-(3,4,5-trimethoxybenzyl)quinoxaline-2-carboxamide] | 52 | 249 | 13000 | 
6 | CCN(CC)c1ccc(CN(Cc2cc(OC)c(OC)c(OC)c2)S(=O)(=O)c2ccc(OC(F)(F)F)cc2)cc1 [Compound 13, N-(4-(diethylamino)benzyl)-4-(trifluoromethoxy)-N-(3,4,5-trimethoxybenzyl)benzenesulfonamide] | 2 | 990 | 1240 | 
7 | CCN(CC)c1ccc(CN(Cc2cc(OC)c(OC)c(OC)c2)S(=O)(=O)c2ccccc2C)cc1 [Compound 14, N-(4-(diethylamino)benzyl)-2-methyl-N-(3,4,5-trimethoxybenzyl)benzenesulfonamide] | 2 | 157 | 180 | 
8 | CCN(CC)c1ccc(CN(Cc2cc(OC)c(OC)c(OC)c2)S(=O)(=O)c2cccs2)cc1 [Compound 16, N-(4-(diethylamino)benzyl)-N-(3,4,5-trimethoxybenzyl)thiophene-2-sulfonamide] | 32 | 639 | > 20000 | 
9 | CCN(CC)c1ccc(CNCc2cccnc2)cc1 [Compound 20, N,N-diethyl-4-(((pyridin-3-ylmethyl)amino)methyl)aniline] |  | > 20000 |  | 
10 | CCN(CC)c1ccc(CN(Cc2cccnc2)S(=O)(=O)/C=C/c2ccccc2)cc1 [Compound 23, (E)-N-(4-(diethylamino)benzyl)-2-phenyl-N-(pyridin-3-ylmethyl)ethene-1-sulfonamide] | 6 | 899 | 5460 | 
11 | CCN(CC)c1ccc(CNCc2ccc3c(c2)OCO3)cc1 [Compound 28, 4-(((benzo[d][1,3]dioxol-5-ylmethyl)amino)methyl)-N,N-diethylaniline] |  | > 20000 |  | 
12 | CCN(CC)c1ccc(CN(Cc2ccc3c(c2)OCO3)S(=O)(=O)c2ccc3ccccc3c2)cc1 [Compound 33, N-(benzo[d][1,3]dioxol-5-ylmethyl)-N-(4-(diethylamino)benzyl)naphthalene-2-sulfonamide] |  | 882 |  | 
13 | CCCCCN(Cc1ccc(N(CC)CC)cc1)S(=O)(=O)c1ccc(-c2ccccc2)cc1 [Compound 42, N-(4-(diethylamino)benzyl)-N-pentyl-[1,1′-biphenyl]-4-sulfonamide] |  | 3150 |  | 

The remaining compounds from weak to strong by Ki (human CB2 receptors), led by results:

Row | SI: selectivity index for CB2, calculated as Ki(CB1)/Ki(CB2) ratio (human CB2 receptors) | Ki (human CB2 receptors) [nM] | Ki (human CB1 receptors) [nM] | Ki (CB1) (human CB1 receptors) | Compound
14 |  | 42300 |  |  | CCN(CC)c1ccc(CNCc2cc(OC)c(OC)c(OC)c2)cc1 [Compound 3, N,N-diethyl-4-(((3,4,5-trimethoxybenzyl)amino)methyl)aniline]
15 |  | 40200 |  |  | CCCCCNCc1ccc(N(CC)CC)cc1 [Compound 36, N,N-diethyl-4-((pentylamino)methyl)aniline]
16 |  | 2000 |  |  | CCN(CC)c1ccc(CN(Cc2ccc3c(c2)OCO3)S(=O)(=O)c2ccc(-c3ccccc3)cc2)cc1 [Compound 34, N-(benzo[d][1,3]dioxol-5-ylmethyl)-N-(4-(diethylamino)benzyl)-[1,1′-biphenyl]-4-sulfonamide]
17 |  | 1200 |  |  | CCN(CC)c1ccc(CN(Cc2cccnc2)C(=O)c2cnc3ccccc3n2)cc1 [Compound 22, N-(4-(diethylamino)benzyl)-N-(pyridin-3-ylmethyl)quinoxaline-2-carboxamide]
18 |  | 1020 |  |  | CCN(CC)c1ccc(CN(Cc2cccnc2)C(=O)c2cccs2)cc1 [Compound 21, N-(4-(diethylamino)benzyl)-N-(pyridin-3-ylmethyl)thiophene-2-carboxamide]
19 | 21 | 946 | > 20000 |  | CCN(CC)c1ccc(CN(Cc2cccnc2)S(=O)(=O)c2ccc(-c3ccccc3)cc2)cc1 [Compound 25, N-(4-(diethylamino)benzyl)-N-(pyridin-3-ylmethyl)-[1,1′-biphenyl]-4-sulfonamide]
20 | 14 | 866 | 12000 |  | CCN(CC)c1ccc(CN(Cc2cccnc2)S(=O)(=O)c2ccc3ccccc3c2)cc1 [Compound 24, N-(4-(diethylamino)benzyl)-N-(pyridin-3-ylmethyl)naphthalene-2-sulfonamide]
21 |  | 657 |  |  | CCN(CC)c1ccc(CN(Cc2cc(OC)c(OC)c(OC)c2)S(=O)(=O)c2ccc(OC)c(OC)c2)cc1 [Compound 17, N-(4-(diethylamino)benzyl)-3,4-dimethoxy-N-(3,4,5-trimethoxybenzyl)benzenesulfonamide]
22 | 44 | 453 | > 20000 | no affinity | CCN(CC)c1ccc(CN(Cc2cc(OC)c(OC)c(OC)c2)S(=O)(=O)c2ccccc2)cc1 [Compound 7, N-(4-(diethylamino)benzyl)-N-(3,4,5-trimethoxybenzyl)benzenesulfonamide]
23 | 50 | 410 | > 20000 | no CB1 binding affinity | CCN(CC)c1ccc(CN(Cc2cc(OC)c(OC)c(OC)c2)S(=O)(=O)c2ccc(OC)cc2)cc1 [Compound 4, N-(4-(diethylamino)benzyl)-4-methoxy-N-(3,4,5-trimethoxybenzyl)benzenesulfonamide]
24 | 3 | 291 | 732 |  | CCN(CC)c1ccc(CN(Cc2cc(OC)c(OC)c(OC)c2)S(=O)(=O)c2cccc(C)c2)cc1 [Compound 5, N-(4-(diethylamino)benzyl)-3-methyl-N-(3,4,5-trimethoxybenzyl)benzenesulfonamide]
25 |  | 239 | 71 |  | CCN(CC)c1ccc(CN(Cc2cc(OC)c(OC)c(OC)c2)S(=O)(=O)c2ccc3ccccc3c2)cc1 [Compound 9, N-(4-(diethylamino)benzyl)-N-(3,4,5-trimethoxybenzyl)naphthalene-2-sulfonamide]
